Data set [1] relates to anesthetized mice. Description: Induction of coronary spasm by methylergometrine in vivo (ECG of anesthetized mice). How it is done: (§1) ECG recordings of conscious mice under unrestricted conditions were obtained using an implantable radio frequency transmitter (TA10ETA-F20) (DATA SCIENCES, St. Paul, Minn.), with subcutaneous leads placed in the conventional lead II position. ECGs of anesthetized mice and isolated hearts (Langendorff-perfused heart) were recorded with leads placed on the body surface (lead II) or epicardium.
(§2) To link dysregulation of vascular tonus and sudden death in Kir6.1^−/− mice, an examination was tried to induce vasospasm using methylergometrine, an ergot alkaloid that stimulates serotonergic receptors and directly triggers the vasoconstriction of vascular smooth muscles (26).

Data set [2] has as its system Langendorff-perfused hearts. Description: Induction of coronary spasm by methylergometrine in vitro (ECG of Langendorff-perfused hearts). The arrangement: species or system mouse. As to conditions: 20 mg. How it is done:
as §1, §2

In data set [3] the test system is ventricular cells. Description: Whole-cell membrane currents of isolated ventricular cells (patch-clamp, ramp-pulse protocol). To be noted: ventricular cells of both Kir6.1+/+ and Kir6.1-/- mice. It is filed as cell-based, mouse. The procedure: (§3) Kir6.1 is expressed most abundantly in the heart (24), and is present in cardiomyocytes (25). Therefore, electrophysiological properties of ventricular myocytes isolated from Kir6.1^+/+ and Kir6.1^−/− mice were compared. The quasi-steady-state membrane currents were recorded using a ramp-pulse protocol.
(§4) Briefly, single ventricular cells of the heart were enzymatically isolated and whole-cell membrane currents were recorded by the patch-clamp method (13). The pipette solution was composed of 20 mM KCl, 1 mM MgCl2, 1 mM phosphocreatine-K2, 110 mM K1-aspartate, 1 mM K2-ATP, 1.0 mM EGTA, 5 mM HEPES (pCa 8.0, pH 7.4). The external solution used was a HEPES-Tyrode solution containing 143 mM NaCl, 5.4 mM KCl, 1.8 mM CaCl2, 0.5 mM MgCl2, 0.33 mM NaHPO4, […], 5 mM HEPES (pH 7.4). Voltage- and current-clamp experiments in heart cells were performed at 36.0° C.

In data set [4] the test system is ventricular cells. As to the kind of experiment: Action potential recording in isolated ventricular cells (current-clamp). In kind it is cell-based, mouse. To be noted: for APD at 90% repolarization level (APD90): mean±SE. The procedure: as §3, §4
Data set [5] concerns aorta smooth muscle cells. As to the kind of experiment: Whole-cell membrane currents of aorta smooth muscle cells. In kind it is cell-based, mouse. As to conditions: for density of pinacidil-induced, glibenclamide-sensitive inward K+ current: held at -40 mV, high K+ (140 mM) solution, mean±SE. The procedure: Single smooth muscle cells of thoracic aorta were enzymatically isolated and electrophysiological studies were conducted in the same manner as performed in the cardiomyocytes.
The compositions of the extracellular high K^+ solution and the pipette solution used in this smooth muscle cell experiment were as follows. The external high-K^+ solution: 2.9 mM NaCl, 140 mM KCl, 2.2 mM CaCl2, 1.2 mM MgCl2, 14 mM glucose and 10 mM HEPES-KOH buffer (pH 7.4). The pipette solution: 140 mM KCl, 4 mM MgCl2, 1 mM ATP-K2, 10 mM EGTA and 10 mM HEPES-KOH solution (pH 7.2). The membrane current was measured at room temperature.
Effect of […] pinacidil was tested on whole-cell membrane currents of aorta smooth muscle cells held at −40 mV in high K^+ (140 mM) solution.

Data set [6] relates to anesthetized mice. Description: Measurement of aortic blood pressure (mean arterial pressure) in anesthetized mice. It is filed as in vivo, mouse. As to conditions: Kir6.1+/+ mice; intravenous 0.3 mg/kg; within 5 minutes; urethane anesthesia. How it is done: K^+ channel openers are known to lower arterial blood pressure by relaxing vascular smooth muscles by opening vascular KATP channels. The present inventors examined the vasodilation response to the K^+ channel opener pinacidil in Kir6.1^+/+ and Kir6.1^−/− mice, in vivo at first.
Hemodynamic measurements were carried out according to the method described by, Suzuki, et al. (12). Changes of mean arterial pressure (MAP) after intravenous injection of 0.3 mg/kg pinacidil are indicated on the ordinate. The points show mean±SE of 6 animals for both groups.

A further data set deals with aortic rings. As to the kind of experiment: Aortic contraction in isolated aortic preparation (tension of thoracic aortic rings precontracted by norepinephrine). It is filed as cell-based, mouse. As to conditions: precontracted by 0.1 μM norepinephrine, cumulative pinacidil. The procedure: The vasodilation response of thoracic aorta to the K^+ channel opener was further examined in vitro by measuring changes in the tension of aortic rings isolated from Kir6.1^+/+ and Kir6.1^−/− mice (FIG. 12). In the same manner as described by Suzuki et al. (13), mechanical function studies of isolated thoracic aorta were carried out. Briefly, the thoracic aorta without the endothelium was removed and cut into rings (4 mm in length). For isometric tension recording, the rings were mounted in a thermostatic organ bath. The bath was perfused with Krebs-Henseleit solution gassed with 95% O2/5% CO2. The aortic rings were precontracted by 0.1 μM norepinephrine, and pinacidil was added in a cumulative manner.

Where [7] appears, read: anesthetized Kir6.1-/- mice, intravenous injection 20 mg.

As for `CC[C@@H](CO)NC(=O)[C@@H]1C=C2c3cccc4[nH]cc(c34)C[C@H]2N(C)C1` [methylergometrine], the “significant changes in ECG or death (animals affected)” value with anesthetized mice [1] (Kir6.1+/+ mice, intravenous injection) is given as “none of 7”. Further, in the data set on anesthetized mice [1] (Kir6.1-/- mice, intravenous injection 20 mg), the “cardiac death concomitantly with changes in ECG (animals affected)” value is 5 Kir6.1^−/− mice out of 8. Besides, in the data set on anesthetized mice [1] (setting [7]), the “depression of ST segments on ECG (animals affected)” value is on record as 1 animal out of 8 and the “elevation of ST segments on ECG (animals affected)” value is 4 animals out of 8. For the same molecule, the “elevation of the ST segment in isolated hearts (hearts affected)” value in data set [2] (isolated hearts of Kir6.1+/+ mice) was 0/5. Further, the “elevation of the ST segment in isolated hearts (hearts affected)” value in data set [2] (isolated hearts of Kir6.1-/- mice) is 4/4.

`COc1ccc(Cl)cc1C(=O)NCCc1ccc(S(=O)(=O)NC(=O)NC2CCCCC2)cc1` [glibenclamide]: the “block of pinacidil-induced outward current” value in the data set on ventricular cells [3] (1 μM glibenclamide) is on record as “blocked”. The “reversal of pinacidil-induced APD90 shortening” value in the data set with ventricular cells [4] (addition of 1 μM glibenclamide after 100 μM pinacidil, Kir6.1+/+ and Kir6.1-/- cells) is “reversed to control levels”. In data set [5] (Kir6.1+/+ smooth muscle cells), the “block of pinacidil-elicited inward K+ currents” value is “blocked”.

With `CC(N/C(=N\C#N)Nc1ccncc1)C(C)(C)C` (centres unmarked) [pinacidil], the “outward current (ATP-sensitive K+ current, IK,ATP)” value in the data set on ventricular cells [3] (pinacidil 1, 10 or 100 μM, 36.0° C) is reported as “concentration-dependent increases of an outward current”. Further, the “APD at 90% repolarization level (APD90)” value in the data set with ventricular cells [4] (Kir6.1+/+ ventricular cells, after 100 μM pinacidil (before: 31.6±2.3 ms)) came to 18.3 ± 2.2 ms; in the data set with ventricular cells [4] (Kir6.1-/- ventricular cells, after 100 μM pinacidil (before: 31.1±4.2 ms)) it was 18.3 ± 3.9 ms. In addition, the “decrease in MAP” value in the data set on anesthetized mice [6] is “about 30 mmHg”. The vasodilating effect entry in the data set with aortic rings (aortic rings from Kir6.1+/+ mice) is “concentration-dependent vasodilating effect”; in the data set on aortic rings (aortic rings from Kir6.1-/- mice), “din not elicit any KATP channel-mediated vasodilating effect”. Further, the results for the “density of pinacidil-induced, glibenclamide-sensitive inward K+ current” value in data set [5] (Kir6.1+/+ smooth muscle cells) and in data set [5] (Kir6.1-/- smooth muscle cells) were 9.53±2.32 pA/pF and 0.13±0.07 pA/pF, respectively.

The values above are taken from patent US7115797B2, “Mice lacking inward-rectifying potassium channel Kir6.1” (JCR Pharmaceuticals Co., Ltd., priority 2002, dated 2006).
